# Source: patent US9371319B2, “Pyrrolopyridineamino derivatives as MPS1 inhibitors” (priority 2011, dated 2016)
# Molecular target: T1, full length MPS1 (Homo sapiens, UniProt P33981)
# T1 sequence (P33981 1-857): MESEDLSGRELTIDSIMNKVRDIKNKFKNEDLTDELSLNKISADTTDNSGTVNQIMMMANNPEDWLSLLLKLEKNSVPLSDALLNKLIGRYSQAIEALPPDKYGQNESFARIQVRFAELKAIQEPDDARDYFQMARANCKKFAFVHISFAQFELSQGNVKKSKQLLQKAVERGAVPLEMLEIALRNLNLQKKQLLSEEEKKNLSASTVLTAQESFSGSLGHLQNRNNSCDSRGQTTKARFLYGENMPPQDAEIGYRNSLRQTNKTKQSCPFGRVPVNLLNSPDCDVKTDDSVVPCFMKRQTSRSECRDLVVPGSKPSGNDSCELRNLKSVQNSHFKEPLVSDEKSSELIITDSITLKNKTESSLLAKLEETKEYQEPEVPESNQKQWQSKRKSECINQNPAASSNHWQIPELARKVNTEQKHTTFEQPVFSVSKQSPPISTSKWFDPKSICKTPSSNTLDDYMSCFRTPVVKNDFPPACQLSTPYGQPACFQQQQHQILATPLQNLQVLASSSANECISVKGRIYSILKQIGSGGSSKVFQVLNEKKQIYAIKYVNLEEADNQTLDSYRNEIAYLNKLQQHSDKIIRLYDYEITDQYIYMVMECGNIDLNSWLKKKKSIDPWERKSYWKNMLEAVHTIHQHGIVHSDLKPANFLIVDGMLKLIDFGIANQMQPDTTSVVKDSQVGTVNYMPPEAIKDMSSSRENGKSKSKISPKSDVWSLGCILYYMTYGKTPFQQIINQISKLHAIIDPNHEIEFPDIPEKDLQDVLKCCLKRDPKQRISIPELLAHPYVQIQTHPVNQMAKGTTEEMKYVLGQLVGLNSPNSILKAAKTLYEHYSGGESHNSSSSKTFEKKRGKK
# Assay: biochemical
# Procedure: Measurement of Inhibition of MPS1 Kinase
# (5 μM), ATP (10 μM), either DMSO (1% v/v) or the test compound (in the range 0.25 nM-100 μM in 1% DMSO) and assay buffer (50 mM HEPES (pH 7.0), 0.02% NaN3, 0.01% BSA, 0.1 mM Orthovandate, […], 1 μM DTT, Roche protease inhibitor). The reaction was carried out for 60 min at room temperature and stopped by the addition of buffer (10 μl) containing 20 mM EDTA, 0.05% (v/v) Brij-35, in 0.1M HEPES-buffered saline (Free acid, Sigma, UK). The plate was read on a Caliper EZ reader II (Caliper Life Sciences).
# The % inhibition of the compounds is calculated relative to the means of selected control wells. […] The % inhibitions at each concentration are then fitted to a 4 parameter logistic fit: y=(a+((b−a)/(1+((c/x^d)))) where a=asym min, b=asym max, c=IC50 and d=hill coefficient
row,SMILES,IC50
1,"COC1CN(C(=O)c2ccc(Nc3cc4[nH]c(-c5cnn(C)c5)cc4cn3)c(Cl)c2)C1 [Example 142, (3-Chloro-4-(2-(1-methyl-1H-pyrazol-4-yl)-1H-pyrrolo[3,2-c]pyridin-6-ylamino)phenyl)(3-methoxyazetidin-1-yl)methanone]",0.01 µM
2,Cn1cc(-c2cc3cnc(Nc4ccc(-c5cncs5)cc4Cl)cc3n2C(=O)OC(C)(C)C)cn1 [Example 24],0.009 µM
3,CN(C)C(=O)c1ccc(Nc2cc3c(cn2)cc(-c2cnn(C)c2)n3-c2ncccn2)c(Cl)c1 [Example 93],0.094 µM
4,Cc1ncc(-c2ccc(Nc3cc4c(cn3)cc(-c3cnn(C)c3)n4CC3CC3)c(Cl)c2)n1C [Example 105],0.029 µM
5,Cn1cncc1-c1ccc(Nc2cc3c(cn2)cc(-c2cnco2)n3C(=O)OC(C)(C)C)c(Cl)c1 [Example 91],0.006 µM
6,Cc1ncn(C)c1-c1ccc(Nc2cc3c(cn2)cc(-c2cnn(C)c2)n3C(=O)OC(C)(C)C)c(Cl)c1 [Example 63],0.005 µM
7,"CN(C)C(=O)c1ccc(Nc2cc3[nH]c(-c4cn[nH]c4)cc3cn2)cc1 [Example 168, 4-(2-(1H-Pyrazol-4-yl)-1H-pyrrolo[3,2-c]pyridin-6-ylamino)-N,N-dimethylbenzamide]",0.011 µM
8,"COc1ccc(Nc2cc3[nH]c(-c4cnn(Cc5cc(C)on5)c4)cc3cn2)c(OC)c1 [Example 173, N-(2,4-Dimethoxyphenyl)-2-(1-((5-methylisoxazol-3-yl)methyl)-1H-pyrazol-4-yl)-1H-pyrrolo[3,2-c]pyridin-6-amine]",0.207 µM
9,CCN(C)C(=O)c1ccc(Nc2cc3c(cn2)cc(-c2cnn(C)c2)n3C(=O)OC(C)(C)C)c(Cl)c1 [Example 39],0.004 µM
10,Cn1cc(-c2cc3cnc(Nc4ccc(-c5ccnn5C)cc4Cl)cc3n2C(=O)OC(C)(C)C)cn1 [Example 44],0.019 µM
11,"COc1cc(F)ccc1Nc1cc2[nH]c(-c3cnn(C)c3)cc2cn1 [Example 157, N-(4-Fluoro-2-methoxyphenyl)-2-(1-methyl-1H-pyrazol-4-yl)-1H-pyrrolo[3,2-c]pyridin-6-amine]",0.119 µM
12,"COc1cc(C(=O)NC2CCN(C)CC2)ccc1Nc1cc2[nH]c(-c3cnn(C)c3)cc2cn1 [Example 111, 3-Methoxy-4-((2-(1-methyl-1H-pyrazol-4-yl)-1H-pyrrolo[3,2-c]pyridin-6-yl)amino)-N-(1-methylpiperidin-4-yl)benzamide]",0.042 µM
13,"COc1cc(-c2ccc(Nc3cc4[nH]c(-c5cnn(C)c5)cc4cn3)c(Cl)c2)ccn1 [Example 151, N-(2-Chloro-4-(2-methoxypyridin-4-yl)phenyl)-2-(1-methyl-1H-pyrazol-4-yl)-1H-pyrrolo[3,2-c]pyridin-6-amine]",0.182 µM
14,COc1cc(CN(C)C)ccc1Nc1cc2c(cn1)cc(-c1cnn(C)c1)n2C(=O)OC(C)(C)C [Example 35],0.008 µM
15,"Cn1cc(-c2cc3cnc(Nc4ccc(C(=O)N5CC(F)(F)C5)cc4Cl)cc3[nH]2)cn1 [Example 153, (3-Chloro-4-((2-(1-methyl-1H-pyrazol-4-yl)-1H-pyrrolo[3,2-c]pyridin-6-yl)amino)phenyl)(3,3-difluoroazetidin-1-yl)methanone]",0.021 µM
16,Cn1cc(-c2cc3cnc(Nc4ccc(-c5cncn5C)cc4Cl)cc3n2C2CCCC2)cn1 [Example 80],0.003 µM
17,CN(C)C(=O)c1ccc(Nc2cc3c(cn2)cc(-c2cnn(C)c2)n3CC2CCCCC2)c(Cl)c1 [Example 71],0.067 µM
18,CCCOC(=O)n1c(-c2cnn(C)c2)cc2cnc(Nc3ccc(-c4cnc(C)n4C)cc3Cl)cc21 [Example 88],0.002 µM
19,"CN1CCN(C(=O)c2ccc(Nc3cc4[nH]c(-c5cnn(C)c5)cc4cn3)c(Cl)c2)CC1 [Example 146, (3-Chloro-4-(2-(1-methyl-1H-pyrazol-4-yl)-1H-pyrrolo[3,2-c]pyridin-6-ylamino)phenyl)(4-methylpiperazin-1-yl) methanone]",0.02 µM
20,COCCn1c(-c2cnn(C)c2)cc2cnc(Nc3ccc(-c4cnc(C)n4C)cc3Cl)cc21 [Example 104],0.083 µM

row,SMILES,IC50
1,Cn1cc(-c2cc3cnc(Nc4ccc(S(C)(=O)=O)cc4Cl)cc3n2C(=O)OC(C)(C)C)cn1 [Example 55],0.024 µM
2,Cn1cc(-c2cc3cnc(Nc4ccccc4Cl)cc3n2CC2CCCCC2)cn1 [Example 67],4.88 µM
3,"COc1cc(C(=O)N2CCOCC2)ccc1Nc1cc2[nH]c(-c3cnn(C)c3)cc2cn1 [Example 118, (3-Methoxy-4-(2-(1-methyl-1H-pyrazol-4-yl)-1H-pyrrolo[3,2-c]pyridin-6-ylamino)phenyl)(morpholino)methanone]",0.012 µM
4,"Cn1cc(-c2cc3cnc(Nc4ccc(S(C)(=O)=O)cc4Cl)cc3[nH]2)cn1 [Example 131, N-(2-Chloro-4-(methylsulfonyl)phenyl)-2-(1-methyl-1H-pyrazol-4-yl)-1H-pyrrolo[3,2-c]pyridin-6-amine]",0.024 µM
5,"Cn1cc(-c2[nH]c3cc(Nc4ccc(C(=O)N5CCS(=O)(=O)CC5)cc4Cl)ncc3c2Cl)cn1 [Example 196, (3-Chloro-4-(3-chloro-2-(1-methyl-1H-pyrazol-4-yl)-1H-pyrrolo[3,2-c]pyridin-6-ylamino)phenyl)(S,S-dioxo-thiomorpholino)methanone]",0.009 µM
6,CN(C)C(=O)c1ccc(Nc2cc3c(cn2)cc(-c2cnn(C)c2)n3C(=O)OC(C)(C)C)c(OC(F)(F)F)c1 [Example 3],0.006 µM
7,Cn1cc(-c2cc3cnc(Nc4cccc(OCC#N)c4)cc3n2C(=O)OC(C)(C)C)cn1 [Example 36],0.156 µM
8,"Fc1ccc(Nc2cc3[nH]c(-c4cn[nH]c4)cc3cn2)cc1 [Example 188, N-(4-fluorophenyl)-2-(1H-pyrazol-4-yl)-1H-pyrrolo[3,2-c]pyridin-6-amine]",0.14 µM
9,CC(C)OC(=O)n1c(-c2cnn(C)c2)cc2cnc(Nc3ccc(C(=O)N(C)C)cc3Cl)cc21 [Example 77],0.006 µM
10,"COc1ccc(C(=O)N(C)C)cc1Nc1cc2[nH]c(-c3cnn(C)c3)cc2cn1 [Example 114, 4-Methoxy-N,N-dimethyl-3-(2-(1-methyl-1H-pyrazol-4-yl)-1H-pyrrolo[3,2-c]pyridin-6-ylamino)benzamide]",0.497 µM
11,CN(C)C(=O)c1ccc(Nc2cc3c(cn2)c(Cl)c(-c2cnn(C)c2)n3C(=O)OC(C)(C)C)c(Cl)c1 [Example 65],0.127 µM
12,"COc1ccc(Nc2cc3[nH]c(-c4cnn(C)c4)cc3cn2)c(F)c1 [Example 155, N-(2-Fluoro-4-methoxyphenyl)-2-(1-methyl-1H-pyrazol-4-yl)-1H-pyrrolo[3,2-c]pyridin-6-amine]",0.053 µM
13,Cc1ncc(-c2ccc(Nc3cc4c(cn3)cc(-c3cnn(C)c3)n4C(=O)OC3CCC3)c(Cl)c2)n1C [Example 85],0.004 µM
14,"COc1cc(C(=O)N2CC(OC)C2)ccc1Nc1cc2[nH]c(-c3cnco3)cc2cn1 [Example 179, (3-Methoxy-4-(2-(oxazol-5-yl)-1H-pyrrolo[3,2-c]pyridin-6-ylamino)phenyl)(3-methoxyazetidin-1-yl)methanone]",0.003 µM
15,"CN(C)C(=O)c1ccc(Nc2cc3[nH]c(-c4cnn(C)c4)cc3cn2)c(OC(F)(F)F)c1 [Example 113, N,N-Dimethyl-4-(2-(1-methyl-1H-pyrazol-4-yl)-1H-pyrrolo[3,2-c]pyridin-6-ylamino)-3-(trifluoromethoxy)benzamide]",0.068 µM
16,"Fc1ccc(Nc2cc3[nH]c(-c4cn[nH]c4)cc3cn2)nc1 [Example 189, N-(5-fluoropyridin-2-yl)-2-(1H-pyrazol-4-yl)-1H-pyrrolo[3,2-c]pyridin-6-amine]",0.159 µM
17,"COc1ccc(Nc2cc3[nH]c(-c4cnn(CC(=O)N(C)C)c4)cc3cn2)c(OC)c1 [Example 135, 2-(4-(6-(2,4-Dimethoxyphenylamino)-1H-pyrrolo[3,2-c]pyridin-2-yl)-1H-pyrazol-1-yl)-N,N-dimethylacetamide]",0.821 µM
18,"COC1CN(C(=O)c2ccc(Nc3cc4[nH]c(-c5cnn(C)c5)c(Cl)c4cn3)c(Cl)c2)C1 [Example 195, (3-chloro-4-(3-chloro-2-(1-methyl-1H-pyrazol-4-yl)-1H-pyrrolo[3,2-c]pyridin-6-ylamino)phenyl)(3-methoxyazetidin-1-yl)methanone]",0.021 µM
19,CC(=O)c1ccccc1Nc1cc2c(cn1)cc(-c1cnn(C)c1)n2C(=O)OC(C)(C)C [Example 9],0.077 µM
